# In US9371322B2, “Bicyclic aza-amides for treatment of psychiatric disorders” (MAX-PLANCK-GESELLSCHAFT ZUR FÖRDERUNG DER WISSENSCHAFTEN …, priority 2012, dated 2016):
# What was measured:
# FKBP52 = target: T1, FKBP52 (Homo sapiens, UniProt Q02790); test: Competitive fluorescence polarization assay, binding to FKBP52; details: for Ki: fluorescence polarization, FKBP52FK1, fluorescent tracer 20 nM final, 30 min room temperature; for FKBP52 ligand efficiency (LE): LE=(ΔG)/N, ΔG=−RTlnKi, RT=0.6, N non-hydrogen atoms
# T1 construct: 400 nM FKBP51FK1, 1600 nM FKBP52FK1
# T1 sequence (Q02790 50-138 limits assumed): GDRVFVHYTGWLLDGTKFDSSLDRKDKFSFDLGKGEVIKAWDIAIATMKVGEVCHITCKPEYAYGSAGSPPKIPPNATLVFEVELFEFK
# Experimental: (§1) Binding of the bicyclic compounds to FKBPs was measured using a competitive fluorescence polarization
# (§2) The compound library ligand was dissolved in DMSO to reach a 100-times concentrated stock solution. This was used for a 1:1 serial dilution in DMSO. […] For FKBP12, -51FK1 and -52FK1 the binding assays were performed in duplicates in the plate format. The competition curves were analyzed by using SigmaPlot11. Data were fitted to a four parameter logistic curve to deduce the IC50 values.
# FKBP12 = FKBP12 (Homo sapiens, UniProt P62942); test: Competitive fluorescence polarization assay, binding to FKBP12; details: for FKBP12 ligand efficiency (LE): LE=(ΔG)/N, ΔG=−RTlnKi, RT=0.6, N non-hydrogen atoms; for Ki: fluorescence polarization, fluorescent tracer 20 nM final, 30 min room temperature
# Experimental: as §1, §2
# FKBP51 = target: T2, FKBP51 (Homo sapiens, UniProt Q13451); test: Competitive fluorescence polarization assay, binding to FKBP51; details: for FKBP51 ligand efficiency (LE): LE=(ΔG)/N, ΔG=−RTlnKi, RT=0.6, N non-hydrogen atoms; for Ki: fluorescence polarization, FKBP51FK1, fluorescent tracer 20 nM final, 30 min room temperature
# T2 construct: 400 nM FKBP51FK1, 1600 nM FKBP52FK1
# T2 sequence (Q13451 42-130 limits assumed): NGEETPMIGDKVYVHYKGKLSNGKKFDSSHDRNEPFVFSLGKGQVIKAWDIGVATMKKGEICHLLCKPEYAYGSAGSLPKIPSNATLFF
# Experimental: as §1, §2
# Chain of FKBP12 (P62942 whole entry): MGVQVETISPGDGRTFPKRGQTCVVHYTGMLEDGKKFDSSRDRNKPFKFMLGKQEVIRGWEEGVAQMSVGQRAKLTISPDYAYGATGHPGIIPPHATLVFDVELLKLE
SMILES,Ki (FKBP52),FKBP12 ligand efficiency (LE) (FKBP12),Ki (FKBP12),FKBP52 ligand efficiency (LE) (FKBP52),FKBP51 ligand efficiency (LE) (FKBP51),Ki (FKBP51)
"COc1ccc(OCCOC(=O)C2CCCCN2C(=O)C(=O)c2cc(OC)c(OC)c(OC)c2)cc1OC (centres unmarked) [Compound 3a, 2-(3,4-dimethoxyphenoxyl)ethyl 1-(2-oxo-2-(3,4,5-trimethoxy-phenyl)acetyl)piperidine-2-carboxylate, reference compound]",> 100000 nM,0.22,300 ± 30 nM,–,–,–
"COc1ccc(OCCOC(=O)C2CCCCN2S(=O)(=O)c2cc(Cl)cc(Cl)c2)cc1OC (centres unmarked) [Compound 3b, 2-(3,4-dimethoxyphenoxyl)ethyl 1-(3,5-dichlorophenyisulfonyl)-piperidine-2-carboxylate, reference compound]",> 100000 nM,0.27,400 ± 6 nM,–,–,–
"COc1ccc(OCCOC(=O)C2CCCCN2S(=O)(=O)c2ccc3ncsc3c2)cc1OC (centres unmarked) [Compound 3c, 2-(3,4-dimethoxyphenoxyl)ethyl 1-(benzo[d]thiazol-6-ylsulfonyl)-piperidine-2-carboxylate, reference compound]",> 100000 nM,0.28,100 ± 0.03 nM,–,–,–
"CCOC(=O)C1CCCCN1S(=O)(=O)c1ccc2[nH]c(=O)sc2c1 (centres unmarked) [Compound 3d, ethyl 1-(2-oxo-2,3-dihydrobenzo[d]thiazol-6-ylsulfonyl)piperidine-2-carboxylate, reference compound]",> 100000 nM,0.38,200 ± 4 nM,–,–,–
"COc1ccc(OCCN2CC3CCCC(C2=O)N3C(=O)C(=O)c2cc(OC)c(OC)c(OC)c2)cc1OC (centres unmarked) [Compound 4a, 1-(3-(2-(3,4-dimethoxyphenoxyl)ethyl)-2-oxo-3,9-diazabicyclo[3.3.1]nonan-9-yl)-2-(3,4,5-trimethoxyphenyl)ethane-1,2-dione, reference compound]",79400 ± 20000 nM,0.24,200 ± 10 nM,0.15,0.15,51100 ± 7600 nM
"COc1ccc(OCCN2CC3CCCC(C2=O)N3S(=O)(=O)c2cc(Cl)cc(Cl)c2)cc1OC (centres unmarked) [Compound 4b, 9-(3,5-dichlorophenylsulfonyl)-3-(2-(3,4-dimethoxyphenoxyl)ethyl)-3,9-diazabicyclo[3.3.1]nonan-2-one]",12200 ± 3700 nM,0.28,140 ± 10 nM,0.20,0.21,8800 ± 1100 nM
"COc1ccc(OCCN2CC3CCCC(C2=O)N3S(=O)(=O)c2ccc3ncsc3c2)cc1OC (centres unmarked) [Compound 4c, 9-(benzo[d]thiazol-6-ylsulfonyl)-3-(2-(3,4-dimethoxyphenoxyl)ethyl)-3,9-diazabicyclo[3.3.1]nonan-2-one]",–,0.24,900 ± 2000 nM,–,0.17,64800 ± 12300 nM
"COc1ccc(OCCN2CC3CCCC(C2=O)N3S(=O)(=O)c2ccc3[nH]c(=O)sc3c2)cc1OC (centres unmarked) [Compound 4d, 6-(3-(2-(3,4-dimethoxyphenoxyl)ethyl)-2-oxo-3,9-diazabicyclo[3.3.1]nonan-9-ylsulfonyl)benzo[d]thiazol-2(3H)-one]",–,0.28,70 ± 0.4 nM,–,0.19,13900 ± 900 nM
"O=C1NCC2CCCC1N2S(=O)(=O)c1ccc2[nH]c(=O)sc2c1 (centres unmarked) [Compound 4e, 6-(2-oxo-3,9-diazabicyclo[3.3.1]nonan-9-ylsulfonyl)benzo[d]thiazol-2(3H)-one]",46400 ± 3800 nM,0.42,100 ± 0.5 nM,0.26,0.27,27000 ± 1700 nM
"CCN1CC2CCCC(C1=O)N2C(=O)C(=O)c1cc(OC)c(OC)c(OC)c1 (centres unmarked) [Compound 4g, 1-(3-ethyl-2-oxo-3,9-diazabicyclo[3.3.1]nonan-9-yl)-2-(3,4,5-trimethoxyphenyl)ethane-1,2-dione, reference compound]",> 100000 nM,0.26,6300 ± 20 nM,–,–,–
O=C1C2CCCC(CN1c1ccccc1)N2S(=O)(=O)c1ccc(Cl)cc1 (centres unmarked) [Compound 4h],> 100000 nM,–,–,–,–,> 100000 nM
"COc1ccc(OCCN2CCC3CCCC(C2=O)N3S(=O)(=O)c2cc(Cl)cc(Cl)c2)cc1OC (centres unmarked) [Compound 5b, 10-(3,5-dichlorophenylsulfonyl)-3-(2-(3,4-dimethoxyphenoxy)ethyl)-3,10-diazabicyclo[4.3.1]decan-2-one]",1600 ± 300 nM,0.32,10 ± 2 nM,0.23,0.23,1200 ± 200 nM
"COc1ccc(OCCN2CCC3CCCC(C2=O)N3S(=O)(=O)c2ccc3ncsc3c2)cc1OC (centres unmarked) [Compound 5c, 10-(benzo[d]thiazol-6-ylsulfonyl)-3-(2-(3,4-dimethoxyphenoxyl)ethyl)-3,10-diazabicyclo[4.3.1]decan-2-one]",3600 ± 500 nM,0.29,30 ± 7 nM,0.21,0.22,2100 ± 200 nM
"COc1ccc(OCCN2CCC3CCCC(C2=O)N3S(=O)(=O)c2ccc3[nH]c(=O)sc3c2)cc1OC (centres unmarked) [Compound 5d, 6-(3-(2-(3,4-dimethoxyphenoxy)ethyl)-2-oxo-3,10-diazabicyclo[4.3.1]decan-10-ylsulfonyl)benzo[d]thiazol-2(3H)-one]",1200 ± 200 nM,0.34,1 ± 0.3 nM,0.22,0.24,300 ± 20 nM
"O=C1NCCC2CCCC1N2S(=O)(=O)c1ccc2[nH]c(=O)sc2c1 (centres unmarked) [Compound 5e, 6-(2-oxo-3,10-diazabicyclo[4.3.1]decan-10-ylsulfonyl)benzo[d]thiazol-2(3H)-one]",22600 ± 1000 nM,0.41,60 ± 2 nM,0.27,0.29,9800 ± 500 nM
"CCC(C)(C)C(=O)C(=O)N1C2CCCC1C(=O)N(CCOc1ccc(OC)c(OC)c1)CC2 (centres unmarked) [Compound 5f, 1-(3-(2-(3,4-dimethoxyphenoxyl)ethyl)-2-oxo-3,10-diazabicyclo-[4.3.1]decan-10-yl)-3,3-dimethylpentane-1,2-dione, reference compound]",> 100000 nM,0.24,1500 ± 100 nM,–,–,> 100000 nM
"COc1ccc(CCN2CCC3CCCC(C2=O)N3C(=O)C(=O)c2cc(OC)c(OC)c(OC)c2)cc1OC (centres unmarked) [Compound 5h, 1-(3-(3,4-dimethoxyphenethyl)-2-oxo-3,10-diazabicyclo[4.3.1]-decan-10-yl)-2-(3,4,5-trimethoxyphenyl)ethane-1,2-dione, reference compound]",> 100000 nM,0.21,1500 ± 40 nM,–,–,> 100000 nM
"COc1ccc(OCCN2CCC3CCCC(C2=O)N3S(=O)(=O)c2cc(Cl)c(O)c(Cl)c2)cc1OC (centres unmarked) [Compound 5i, 10-(3,5-dichloro-4-hydroxyphenylsulfonyl)-3-(2-(3,4-dimethoxyphenoxyl)ethyl)-3,10-diazabicyclo[4.3.1]decan-2-one]",3500 ± 400 nM,0.24,400 ± 40 nM,0.21,0.23,1000 ± 100 nM
"C=C[C@H]1CN(CCOc2ccc(OC)c(OC)c2)C(=O)[C@@H]2CCC[C@H]1N2S(=O)(=O)c1cc(Cl)cc(Cl)c1 [Compound 5k, (1S,5S,6R)-10-(3,5-dichlorophenylsulfonyl)-3-(2-(3,4-dimethoxyphenoxyl)ethyl)-5-vinyl-3,10-diazabicyclo[4.3.1]decan-2-one]",–,–,–,–,–,2100 ± 400 nM
"C=CC[C@@H]1/C=C(\C)C[C@H](C)C[C@H](OC)[C@H]2O[C@@](O)(C(=O)C(=O)N3CCCC[C@H]3C(=O)O[C@H](/C(C)=C/[C@@H]3CC[C@@H](O)[C@H](OC)C3)[C@H](C)[C@@H](O)CC1=O)[C@H](C)C[C@@H]2OC [FK 506, FK506, reference compound]",–,–,–,–,–,28 ± 5 nM
